Test results from patent publication US9504676B2, “Molecules inhibiting a metabolic pathway involving the Syk protein tyrosine kinase and method for identifying said molecules” (CENTRE NATIONAL DE LA RECHERCHE SCIENTIFIQUE, priority 2008, dated 2016).

Experiments:
BALB/c mice [1] = experiment: IgE-induced passive systemic anaphylaxis (PSA); assay type: in vivo
Method: Finally, to extend these observations to mast cell functions in vivo, the inventors tested the effects of C-13 on passive systemic (PSA) and cutaneous anaphylaxis (PCA) induced in BALB/c mice by administering DNP-specific IgE molecules followed by intravenous stimulation with DNP-KLH hapten. […] The intensity of systemic anaphylaxis was determined by measuring both the drop in body temperature and the increase in vascular permeability following antigen administration.
(§1) • 1) Chemical products and antibodies. A chemical bank of 3000 molecules (a varied subset) was acquired from ChemBridge, Inc. (San Diego, Calif.). Stocks of solutions of small molecules were prepared at a rate of 10 mM in DMSO (dimethylsulphoxide), except for C-13 (methyl 2-{5-[(3-benzyl-4-oxo-2-thioxo-1,3-thiazolidin-5-ylidene)methyl]-2-furyl}benzoate, ChemBridge ID No. 6197026) prepared in DMF (dimethylformamide). Unless specified otherwise, all the reagents were supplied by Sigma. […] The binding of G4G11 with Syk was assessed by adding the 9E10 monoclonal antibody conjugated with HRP detecting the amino acid sequence EQKLISEEDLN of human c-myc protein located at the C-terminal end of the scFv fragment. To generate Syk mutants, targeted mutagenesis was used on GST:Syk 6-242 protein and the binding of G4G11 with the mutants was assessed in the presence of 5 μM of C-13. • 3) Cells, culture conditions and functional tests. […]

Syk = molecular target: T1, Syk (Rattus norvegicus, UniProt Q64725); experiment: Phosphorylation and FcεRI-induced kinase activity of Syk in RBL-2H3 cells; assay type: cell-based
T1 construct: endogenous in cells; host or cells: RBL-2H3

BALB/c mice [2] = experiment: Antibody production after immunisation with TNP-KLH; assay type: in vivo; conditions: oral administration of 150 mg/kg, day 12
Lyn = experiment: FcεRI-dependent Lyn activation in RBL-2H3 cells; assay type: cell-based, rat
From the text: To examine the functional similarities with G4G11, the inventors explored the biological effects of C-13 on mast cell activation. […] Similarly to the intrabody G4G11, C-13 inhibited the phosphorylation and FcεRI-induced kinase activity of Btk (FIG. 2A) and the phosphorylation of PLC-γ1 and PLC-γ2, the two PLC-γ isoforms expressed in mast cells (FIGS. 2A, C). PTK Lyn phosphorylates both Syk and Btk giving rise to the complete activation thereof and the subsequent phosphorylation of PLC-γ^18.
as §1, with “(dimethylformamide).” for “(dimethylformamide). Unless specified otherwise, all the reagents were supplied by Sigma.”

T1 sequence (Q64725 whole entry): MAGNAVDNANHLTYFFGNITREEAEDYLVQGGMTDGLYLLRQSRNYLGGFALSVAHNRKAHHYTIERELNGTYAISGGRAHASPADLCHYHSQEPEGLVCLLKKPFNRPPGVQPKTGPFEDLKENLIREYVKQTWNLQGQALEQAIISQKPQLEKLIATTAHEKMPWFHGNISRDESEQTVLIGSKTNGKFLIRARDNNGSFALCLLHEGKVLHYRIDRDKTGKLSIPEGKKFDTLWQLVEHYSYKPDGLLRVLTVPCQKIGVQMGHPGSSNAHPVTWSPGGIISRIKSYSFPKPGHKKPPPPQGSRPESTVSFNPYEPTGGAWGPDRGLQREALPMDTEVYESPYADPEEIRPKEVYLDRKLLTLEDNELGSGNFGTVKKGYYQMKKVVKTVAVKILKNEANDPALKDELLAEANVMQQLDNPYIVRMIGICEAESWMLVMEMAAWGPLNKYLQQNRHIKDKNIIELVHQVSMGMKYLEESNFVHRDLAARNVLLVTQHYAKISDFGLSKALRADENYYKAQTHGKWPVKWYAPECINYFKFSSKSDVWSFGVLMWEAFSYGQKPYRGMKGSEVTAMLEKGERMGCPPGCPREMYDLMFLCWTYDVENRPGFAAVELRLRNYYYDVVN

COC(=O)c1ccccc1-c1ccc(/C=C2/SC(=S)N(Cc3ccccc3)C2=O)o1 [Molecule C-13, methyl 2-{5-[(3-benzyl-4-oxo-2-thioxo-1,3-thiazolidin-5-ylidene)methyl]-2-furyl}benzoate]
colour of ears and tail (Evans blue extravasation) in PSA (BALB/c mice [1]; oral administration of 130 mg/kg): light blue colour | hypothermia (drop in body temperature) in PSA (BALB/c mice [1]; single oral dose of 100 mg/kg): inhibited hypothermia | phosphorylation and FcεRI-induced kinase activity of Syk (Syk): did not affect | antibody responses of mice immunised with a thymus-dependent antigen (BALB/c mice [2]): not affected | FcεRI-dependent Lyn activation (Lyn): did not affect
